# Data as given in patent US12029762B2, “Alkalized organic pharmaceutical or nutraceutical composition” (priority 2009, dated 2024).
# Test: Strength, stamina and endurance of a training test subject
# Assay type: in vivo, human
# Protocol: Test subject was administered L-Glutamine HCl (pH 6.0) for 30 days.
# Training was three days per week, with 3 days of cardio. Dosage was 500 mg per day the first week and 1000 mg per day for week 2-4.
# Test subject was taken off the glutamine HCl (pH 6.0) and administered buffered-Glutamine (pH 12.0) for 30 days. Training was three days per week, with 3 days of cardio. Dosage was 500 mg per day for the 5th week and 1000 mg per day for weeks 6-8.
smiles,measurement,setting,value
Cl.NC(=O)CC[C@H](N)C(=O)O [L-Glutamine HCl],"changes to strength, stamina or endurance (in words)","Week 1, 500 mg per day",No noticeable changes
same,"changes to strength, stamina or endurance (in words)","Week 2-4, 1000 mg per day",No noticeable changes
